Source: patent publication US7005513B1, “Functionalized glycosaminoglycan polymer and medical instruments and drugs by using the same” (Netech, Inc., priority 1999, dated 2006)

System: human coronary artery endothelial cells (CEC)
Assay: CEC proliferation on coated multiplate (WST-1)
Assay type: cell-based
Parameters: reference not given here
Conditions: substance as plate coating, 3 days
Experimental: A polystyrene 96-well multiplate was coated with aqueous P-I-20 or P-N-12 solutions (0.5 mg/ml) of the present invention, and also 2% gelatin and 10 μg/ml of human fibronectin solution, these were inoculated with 6,000 human coronary artery endothelial cells (CEC) suspended in a Dulbecco modified Eagle medium (10% fetal bovine serum added), after which FGF2 or VEGF165 were added as cell growth factors, and this was cultured from 3 days. After culturing, a WST-1 reagent (cell counting kit, Dojindo) was used to count the number of increased cells, and the results of an evaluation of the proliferation rate are shown in Table 1.

Substance	CEC Proliferation Rate (FGF2 4 μg/l)	CEC Proliferation Rate (FGF2 8 μg/l)	CEC Proliferation Rate (VEGF165 4 μg/l)	CEC Proliferation Rate (VEGF165 8 μg/l)
Gelatin	356	389	335	385
Fibronectin	273	327	371	436
